Values quoted from earlier work as cited in EP1136069A1, “Pharmaceutical compositions containing clodronates for high local tolerance intramuscular administration” (SPA SOCIETA' PRODOTTI ANTIBIOTICI S.p.A., priority 2000, dated 2001).

Settings: oral route

O=P(O)(O)C(Cl)(Cl)P(=O)(O)O [clodronate]
bioavailability: 1-4%
